# Target: T1, TIR domain of TIR-1 (Caenorhabditis elegans, UniProt Q86DA5)
# T1 sequence (Q86DA5 707-930): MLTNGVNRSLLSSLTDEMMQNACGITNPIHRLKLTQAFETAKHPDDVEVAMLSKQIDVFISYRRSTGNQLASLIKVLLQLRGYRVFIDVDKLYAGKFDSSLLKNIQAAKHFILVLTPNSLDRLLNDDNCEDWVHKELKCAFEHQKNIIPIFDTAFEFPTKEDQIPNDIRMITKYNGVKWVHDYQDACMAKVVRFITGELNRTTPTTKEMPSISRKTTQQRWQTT
# Experiment: direct fluorescent base exchange assay
# Format: biochemical
# Conditions: […] °C
"Km ([…] NAD+ (saturating), […] PEG […] Tris pH […] NaCl)","Km ([…] PC6 (saturating), […] PEG […] Tris pH […] NaCl)",Compound
165 µM,–,CCOc1ccc(/C=C/c2ccncc2)cc1 [PC6]
–,630 µM,NC(=O)c1ccc[n+]([C@@H]2O[C@H](COP(=O)(O)OP(=O)(O)OC[C@H]3O[C@@H](n4cnc5c(N)ncnc54)[C@H](O)[C@@H]3O)[C@@H](O)[C@H]2O)c1 [NAD^+]

# Source: publication PMC10795796 (Biochemistry, 2023)
